In ChEMBL document CHEMBL5120919, “Micrococcin P2 Targets Clostridioides difficile” (J Nat Prod, 2022):
≈ marks a conversion by molar mass, not a printed value. Calls of active or inactive are those of the source. The calls are words filed in the database; no cut-off is given here.

How the values were obtained:
Clostridioides difficile [1] = assay: Antibacterial activity against Clostridioides difficile RT078/ST11 clinical isolate expressing A+B+CDT+ toxin assessed as inhibition of bacterial growth incubated for 24 hrs by CLSI based agar dilution method; assay type: functional
Clostridioides difficile [2] = assay: Antibacterial activity against Clostridioides difficile RT001/ST3 clinical isolate expressing A+B+ toxin assessed as inhibition of bacterial growth incubated for 24 hrs by CLSI based agar dilution method; assay type: functional
Clostridioides difficile [3] = assay: Antibacterial activity against Clostridioides difficile RT015/ST35 clinical isolate expressing A+B+ toxin assessed as inhibition of bacterial growth incubated for 24 hrs by CLSI based agar dilution method; assay type: functional
Clostridioides difficile [4] = assay: Antibacterial activity against Clostridioides difficile RT014/ST14 clinical isolate expressing A+B+ toxin assessed as inhibition of bacterial growth incubated for 24 hrs by CLSI based agar dilution method; assay type: functional
Clostridioides difficile [5] = assay: Antibacterial activity against Clostridioides difficile RT130/ST5 clinical isolate expressing A+B+CDT+ toxin assessed as inhibition of bacterial growth incubated for 24 hrs by CLSI based agar dilution method; assay type: functional
Clostridioides difficile [6] = assay: Antibacterial activity against Clostridioides difficile ST221 clinical isolate expressing A+B+CDT+ toxin assessed as inhibition of bacterial growth incubated for 24 hrs by CLSI based agar dilution method; assay type: functional
Clostridioides difficile [7] = assay: Antibacterial activity against Clostridioides difficile RT002/ST8 clinical isolate expressing A+B+ toxin assessed as inhibition of bacterial growth incubated for 24 hrs by CLSI based agar dilution method; assay type: functional
Clostridioides difficile [8] = assay: Antibacterial activity against Clostridioides difficile RT293/ST129 clinical isolate expressing A+B+ toxin assessed as inhibition of bacterial growth incubated for 24 hrs by CLSI based agar dilution method; assay type: functional
Clostridioides difficile [9] = assay: Antibacterial activity against Clostridioides difficile RT027 assessed as reduction in bacterial count at 5 ug/ml measured after 24 hrs by CLSI based time kill curve assay; assay type: functional; conditions: dose 5 µg/ml
Clostridioides difficile [10] = assay: Antibacterial activity against Clostridioides difficile RT018/ST17 clinical isolate expressing A+B+ toxin assessed as inhibition of bacterial growth incubated for 24 hrs by CLSI based agar dilution method; assay type: functional
Clostridioides difficile [11] = assay: Antibacterial activity against Clostridioides difficile RT027/ST1 clinical isolate expressing A+B+CDT+ toxin assessed as inhibition of bacterial growth incubated for 24 hrs by CLSI based agar dilution method; assay type: functional
Clostridioides difficile [12] = assay: Antibacterial activity against Clostridioides difficile RT012/ST54 clinical isolate expressing A+B+ toxin assessed as inhibition of bacterial growth incubated for 24 hrs by CLSI based agar dilution method; assay type: functional
Clostridioides difficile [13] = assay: Antibacterial activity against Clostridioides difficile RT017/ST37 clinical isolate expressing A-B+ toxin assessed as inhibition of bacterial growth incubated for 24 hrs by CLSI based agar dilution method; assay type: functional
RAW264.7 [14] = assay: Antiinflammatory activity in mouse RAW264.7 cells assessed as decrease in LPS induced IL6 expression in supernatant at 5 to 40 uM measured after 24 hrs by ELISA; assay type: functional, cell-based; conditions: dose 5-40 µM
SH-SY5Y = assay: Cytotoxicity against human SH-SY5Y cells assessed as reduction in cell viability at 40 uM incubated for 48 hrs by CCK-8 assay; assay type: toxicity, cell-based
[15] = Clearance in Sprague-Dawley rat at 10 mg/kg, po measured up to 8 hrs by LC-MS/MS analysis; assay type: ADME, organism-based; conditions: in vivo, BLD = below limit of detection
[16] = Volume of distribution at steady state in Sprague-Dawley rat at 10 mg/kg, po measured up to 8 hrs by LC-MS/MS analysis; assay type: ADME, organism-based; conditions: in vivo, BLD = below limit of detection
Clostridioides difficile [17] = assay: Antibacterial activity against Clostridioides difficile RT027 assessed as reduction in bacterial count at 1 to 4 times MIC measured after 24 hrs by CLSI based time kill curve assay; assay type: functional
[18] = Half life in Sprague-Dawley rat at 10 mg/kg, po measured up to 8 hrs by LC-MS/MS analysis; assay type: ADME, organism-based; conditions: in vivo, BLD = below limit of detection
[19] = AUClast in Sprague-Dawley rat at 2 mg/kg, iv measured up to 8 hrs by LC-MS/MS analysis; assay type: ADME, organism-based; parameters: time < 8 hrs, dose 2 mg/kg, route iv; conditions: in vivo
[20] = Clearance in Sprague-Dawley rat at 2 mg/kg, iv measured up to 8 hrs by LC-MS/MS analysis; assay type: ADME, organism-based; conditions: in vivo
Clostridioides difficile [21] = assay: Antibacterial activity against Clostridioides difficile RT027 assessed as regrowth of bacteria at 0.5 times MIC measured after 6 hrs by CLSI based time kill curve assay; assay type: functional, organism-based
[22] = MRT in Sprague-Dawley rat at 10 mg/kg, po measured up to 8 hrs by LC-MS/MS analysis; assay type: ADME, organism-based; conditions: in vivo, BLD = below limit of detection
[23] = MRT in Sprague-Dawley rat at 2 mg/kg, iv measured up to 8 hrs by LC-MS/MS analysis; assay type: ADME, organism-based; conditions: in vivo
[24] = Volume of distribution at steady state in Sprague-Dawley rat at 2 mg/kg, iv measured up to 8 hrs by LC-MS/MS analysis; assay type: ADME, organism-based; conditions: in vivo, read-out: Vdss
Clostridioides difficile [25] = assay: Antibacterial activity against Clostridioides difficile RT027 infected in DSS-induced IBD C57BL/6 mouse model assessed as survival rate at 30 mg/kg, po administered once daily for 5 days; assay type: functional; conditions: time 5 day
[26] = Half life in Sprague-Dawley rat at 2 mg/kg, iv measured up to 8 hrs by LC-MS/MS analysis; assay type: ADME, organism-based; conditions: in vivo
HEK-293T = assay: Cytotoxicity against HEK293T cells assessed as reduction in cell viability at 40 uM incubated for 48 hrs by CCK-8 assay; assay type: toxicity, cell-based; conditions: human
RAW264.7 [27] = assay: Antiinflammatory activity in mouse RAW264.7 cells assessed as decrease in LPS induced IL-1beta expression in supernatant at 5 to 40 uM measured after 24 hrs by ELISA; assay type: functional, cell-based; conditions: dose 5-40 µM

Row | SMILES | MIC (Clostridioides difficile [1]) [µg/mL] | MIC (Clostridioides difficile [2]) [µg/mL] | MIC (Clostridioides difficile [3]) [µg/mL] | MIC (Clostridioides difficile [4]) [µg/mL] | MIC (Clostridioides difficile [5]) [µg/mL] | MIC (Clostridioides difficile [6]) [µg/mL] | MIC (Clostridioides difficile [7]) [µg/mL] | MIC (Clostridioides difficile [8]) [µg/mL] | MIC (Clostridioides difficile [10]) [µg/mL] | MIC (Clostridioides difficile [11]) [µg/mL] | MIC (Clostridioides difficile [12]) [µg/mL] | MIC (Clostridioides difficile [13]) [µg/mL] | other results
1 | CN[C@H](CC(C)C)C(=O)N[C@H]1C(=O)N[C@@H](CC(N)=O)C(=O)N[C@H]2C(=O)N[C@H]3C(=O)N[C@H](C(=O)N[C@H](C(=O)O)c4cc(O)cc(O)c4-c4cc3ccc4O)[C@H](O)c3ccc(c(Cl)c3)Oc3cc2cc(c3O[C@@H]2O[C@H](CO)[C@@H](O)[C@H](O)[C@H]2O[C@H]2C[C@](C)(N)[C@H](O)[C@H](C)O2)Oc2ccc(cc2Cl)[C@H]1O [VANCOMYCIN] | 1 (≈ 0.69 µM) | 1 (≈ 0.69 µM) | 1 (≈ 0.69 µM) | 1 (≈ 0.69 µM) | 0.5 (≈ 0.345 µM) | 1 (≈ 0.69 µM) | 1 (≈ 0.69 µM) | 1 (≈ 0.69 µM) | 0.5 (≈ 0.345 µM) | 0.5 (≈ 0.345 µM) | 1 (≈ 0.69 µM) | 0.5 (≈ 0.345 µM) | Activity (Clostridioides difficile [9]): 1.5 log10CFU
2 | C/C=C(\NC(=O)c1csc(-c2csc(-c3ccc4c(n3)-c3csc(n3)[C@H]([C@@H](C)O)NC(=O)c3csc(n3)[C@H](C(C)C)NC(=O)c3csc(n3)/C(=C/C)NC(=O)[C@H]([C@@H](C)O)NC(=O)c3csc-4n3)n2)n1)C(=O)NCC(C)=O | 1 (≈ 0.875 µM) | 2 (≈ 1.75 µM) | 1 (≈ 0.875 µM) | 1 (≈ 0.875 µM) | 1 (≈ 0.875 µM) | 2 (≈ 1.75 µM) | 1 (≈ 0.875 µM) | 1 (≈ 0.875 µM) | 1 (≈ 0.875 µM) | 1 (≈ 0.875 µM) | 2 (≈ 1.75 µM) | 1 (≈ 0.875 µM) | Activity (RAW264.7 [14]): Active; Activity (SH-SY5Y): Non-Toxic; CL [15]: Bld; Vdss [16]: Bld; Activity (Clostridioides difficile [17]): 2.5 log10CFU; t1/2 [18]: Bld; AUC(0-t) at 8 h [19]: 374 ng·h/mL; clearance [20]: 88.9 mL/min/kg; Activity (Clostridioides difficile [21]): Active; MRT [22]: Bld; MRT [23]: 24 min; Vd [24]: 2.1 L/kg; Activity (Clostridioides difficile [25]): 100%; half-life [26]: 48 min; Activity (HEK-293T): Non-Toxic; Activity (RAW264.7 [27]): Active
